Measured values: patent publication EP0470323A2, “New salts of the nicotinic acid with aminobenzylic compounds and their pharmaceutical use” (BROMLEY LIMITED, priority 1990, dated 1992)

Legend:
[1] = tested on: Hypercholesterolaemia caused by Trit WR1339 in the mouses; test: Hypercholesterolaemia of the mouse caused by Triton WR 1339; type: in vivo; conditions: dose 2 mM/kg per os
Description: The method described by Garattini S. (Arzneim,Forsch 9, 206; 1959) with some modifications has been followed.
The mouses used have been males of 22 to 28 grams body weight, on an empty stomach but with water "ad libitum" since 12 hours. The hyperlipidaemia was induced by means of an intraperitoneum administration of […] of Triton WR 1339, with dosage 300 mg/kg in a physiological solution. The subject products were administered at the same time in clear plain water, always in a volume of […] by means of a gastric probe. The animals were sacrified after 20 hours, by cutting them the carotids. The blood was collected in some plastic test-tubes, and was centrifuged at 3500 rpm for ten minutes. Thereafter the total cholesterol (Sornay R and colleagues, Arzeneim Forsch, 26,885 1976) and the total lipids (Chonhelmer R and colleagues, Biological Chemistry 106, 745, 1934) were determined.

[2] = tested on: hypertrigliceridaemia from olive oil in the rats; test: Hypertriglyceridaemia from olive oil in the rat (serum lactescence); type: in vivo; conditions: dose 2 mM/kg/os
Description: The method described by Zucker I.H. (Sci. Anal. Lab. 24, 114, 1972) has been followed.
Male rats have been used, whose body weight was 150-200 g. The animals were without eating with water "ad libitum" and all this beginning 24 hours before the experiment. The hyperlipaemia was induced by the administration of olive oil by mouth; its composition as to the fat acids was as follows: palmitic acid 10% palmitoleic acid 1%, stearic acid 3%, […] and linoleic acid 7% (all percentages are by weight). The quantity of olive oil administered, by means of a gastric probe, was 10 ml/kg. The treatments were made by finely pounding with a china mortar and by suspending in the olive oil the examined compounds. […] The positive control animals received only olive oil; moreover, there was also a group of negative control animals who received plain water in quantities of 10 ml/kg. Every three hours a group of rats (10) was killed in a light ethereal anaesthesia, in order to be able to appreciate the percentage of triglycerides in the blood. The animals were bled by cutting them the carotids and the blood was collected in plastic test-tubes, capacity 10 ml each, and was centrifuged for ten minutes at 3500 rpm. The evaluated parameter was the lactescence of the serum, which is directly proportional to the contents of kilomicrons and therefore of triglycerides (Zucker, see above the mention). The serum has been diluted 1:5 in a physiologic solution and was read at the spectrophotometer at […] against white (physiologic solution). From the individual optical Density (D.O.) data one could calculate for each group the average of the standard error. The statistical analysis was performed by means of the t of Dunnett.

[3] = tested on: Hypertriglyceridaemia caused by ethanole in the rats; test: Hypertriglyceridaemia caused by ethanol in rats, activity at three dose levels; type: in vivo; conditions: rat
From the text: (§1) For this test group the methods described by Sistori C.R. and colleagues (Atherosclerosis 30, 45; 1978) is followed.
(§2) The hypertriglyceridaemia has been induced into the male rats having a body weight of 160 - 170 g by giving them to drink, for 4 consecutive days, a solution of 10% ethanole in water.

[4] = tested on: Hypertriglyceridaemia caused by ethanole in the rats; test: Hypertriglyceridaemia caused by ethanol in rats, duration of the effects; type: in vivo; conditions: rat, dose 1 mM/kg/os
From the text: as §1, §2
In order to perform the particular kinetics of the compound in accordance with the example 1 following the instant invention, it was considered appropriate, anyway, to evaluate the duration of the hypolipaemizing effect in comparison to that of the nicotinic acid.
A group of normal animals was treated with the vehicle only and did serve as a negative control group.

[5] = tested on: aggregation of the platelets caused by the collagene; test: Anti-aggregating ex vivo activity against collagen in the rat; conditions: rat, 1,00 mM/kg os for 4 days
Description: Six groups of 15 male rats of 200 - 250 g have been used.
The blood taken from the three rats of each group has been mixed and centrifuged during 6 minutes at 1400 rpm, at room temperature. After having taken the plasma full of platelets (PRP) the thereunder floating material has been centrifuged again (4000 rpm during 10 minutes) in order to have the plasma with few platelets (PPP) separated from the balance. The PRP has been diluted with a part of PPP in order to bring the number of platelets to 350 ± 50 x 10³/mm³. The aggregation has been evaluated in accordance with the method of Minsker D.H. and coll. (J. Pharmacol.Exp.Ther. 210 37 1979) by using an ELVI 840 two-channels aggregometer and an Omniscribe recorder B.500. A quantity of 0,25 ml PRP has been used, transferred into the aggregometer for two minutes at 37°C and stirred at 1000 rpm. The light intensity was arranged in such a way, to obtain 0% transmittance with the PRP and 100% with the PPP. After 2′ incubation, by means of microsyringe the collagene was added to the PRP in a volume quantity of 5 mcl with the final concentration of 4 mcg/ml.
From the aggregation trace of the recorder the following data have been evaluated: • a) latent time of the aggregation (seconds between the introductions of collagene and the starting of the aggregation) • b) transmittance increase percentage (maximum aggregation). The same proceeding was repeated for all animals, always by mixing the blood of three rats belonging to the same group and by obtaining in this manner five aggregation curves per group.

[6] = tested on: skin temperature of the mouse's paw; test: Peripheral vessel-dilating activity in the mouse (skin temperature of hind paws); type: in vivo; conditions: for Temperature (°C) of the hind paws (n=10): intravenous, dose 0,030 mM/kg/iv; for Temperature (°C) of the hind paws: oral, dose 0,500 mM/kg/os
Description: The method of Richter W. (Acta Pharm. Toxicol. 21, 91; 1974) was used; it consists in determining, at fixed time intervals after the treatment, the skin temperature of the mouse's paw, by keeping the animals in rooms at a constant temperature of 21°C.
Some groups of ten male mouses each have been used; the weight of each animal was 30 g approximately.
The compound according to the Example 1 has been tested "per os" at three basic levels of the doses (0,125 - 0,25 - 0,5 mM/kg) and by intravenous injection at two dose levels (0,015 and 0,03 mM/kg), in comparison with one sole dose of Papaverin and chlorhydrated Buflomedil (0,5 mM/kg "per os" and 0,03m M/kg intravenous). The observation of the skin temperature at the mouse's paw was made before the treatment, 30, 60 and 120 minutes after the "per os" treatment, […] (A-Hl Ellab) connected with an Ellab electric recorder. Of each animal the temperature of both hind paws has been measured, and the values obtained have been averaged .

[7] = tested on: Central artery of a rabbit's ear; test: In vitro antispastic action, adrenalin-induced spasm of the perfused isolated artery; conditions: for % inhibi-tions of the con-tractions: spasm induced by Adrenalin, n=4
Description: An "in vitro" method has been used, according to which the withdrawal of the central artery of a rabbit's ear with the relevant nervous connections and the equipment of an appropriate seat for secluded organs was designed (Fleckenstein A., British Journal of Pharmacology 7, 533, 1952).
On the artery they did install a three-ways tube, connected with a peristaltic pump and with a mercury manometer to record the perfusion pressure. The artery was perfused with a rebs liquid at the speed of 2,5 ml/minute. The contractions were induced by injecting into the vessel 0,1 ml adrenalin at the concentration of 1 mcg/ml. The compound according to the example 1 has been added to the bath at concentrations of 0,5 - 1 - 2 uM, five minutes before the adrenalin (four preparations per concentration). As comparison drugs, chlorhydra ted Buflomedil and Papaverin have been used. The activity of the material under investigation has been appreciated in terms of percentages referring to the concentration induced by the Adrenalin (and expressed with DE₅₀) and the relevant forbidding.

[8] = tested on: red cells in the rat; test: Red cell adhesivity / filtration, Teitel method; type: in vivo
From the text: (§3) steresis (Teiltel P.: Nouv. Rev. Franç. Hématol. 7, 195, 1967). Any alteration, almost undoubtely at the level of the red cell's membrane, cause some damaging variations of the red cell's elasticity thus making more difficult the passing through the capillary vessels having more reduced diameter, and therefore increasing the flow resistance in the peripheral vessels systems. In order to determine the effect caused by the compound according to the Example 1, on these features of the red cell, the method described by Schmidt, Schonbein and colleagues (Blut 26, 369, 1973) has been used.
(§4) In the circulatory flow, the above mentioned capillary vessels being excluded, the blood cells do normally circulate being attached between each other because of their adhesiveness. In order to study this adhesion force, the above mentioned Teitel method has been used. Male rats of 150 g body weight approximately have been employed, and they have been treated for three consecutive days with 0,5 mM/kg/os of the compound according to the Example 1, or otherwise Buflomedil, or even Pentosiphillin used as comparison substance. After the last treatment the animals, without eating from 18 hours, have been killed in a light ethereal anaesthesy and the blood was collected over an 0,2 molar EDTA (9 and 1 volumes respectively). The red cells filtering possibility, measured with the Teitel method, wherein the quantity of red cells passing, in high haematocritical conditions, through a paper filter with holes of 20-40 µm in a previously determined time, has been ascertained as follows: the blood was centrifuged for ten minutes at 2000 rpm in order to obtain the massing of the red cells, two ml of the blood collected as above were put into an upside down turned cone made with filtering paper, being previously wetted with a physiological solution. The volume passing through the filter in 2 - 4 - 8 and 16 minutes is then measured. The average filtration time T 1/2 is reckoned on semi-logarithmic paper by putting on the abscissae the logarithm of the time, and on the ordinates the percentage of blood filtered. In order to follow the Schmidt Schönbein method, the here after described proceeding has been performed: 0,2 ml of a suspension of red cells at 2% obtained by diluting the blood with the autological plasma, then it was placed into an appropriate device permitting to filter this blood through a filter (millipores) of 5 µm mashes at a filtration pressure of 50 mm water. With a chronometer one determines the time required for the passage of the whole sample through the filter.
At time same time, one measures, in the same conditions, the same parameter for a plasma sample. One calculates then the relative filtration time by dividing the time required to filter the diluted blood sample by the time being necessary to filter the plasma sample. For each group the average and the standard error of the individual data obtained was reckoned. The statistical evaluation was obtained by means of the Dunnett test.

[9] = tested on: red cells in the rat; test: Red cell deformability / filtration, Schmidt-Schönbein method; type: in vivo; conditions: dose 3 x 0,5 mM/kg/os
From the text: as §3
as §4, with “The average filtration time T 1/2 is reckoned on semi-logarithmic paper by putting on the abscissae the logarithm of the time, and on the ordinates the percentage of blood filtered. In order to follow the Schmidt Schönbein method, the here after described proceeding has been performed: 0,2 ml of a suspension of red cells at 2% obtained by diluting the blood with the autological plasma, then it was placed into an appropriate device permitting to filter this blood through a filter (millipores) of 5 µm mashes at a filtration pressure of 50 mm water. With a chronometer one determines the time required for the passage of the whole sample through the filter.” left out

[10] = 20 hours after Triton WR 1339 i.p.
[11] = PRP 2 hours after last treatment, collagene 4 mcg/ml
[12] = 0 minutes (before the treatment)

In the case of `O=C(O)c1cccnc1` [Nicotinic acid, nicotinic acid], the “Tot.Cholesterol M ± E.S.” value [1, 10] is reported as 215 ± 16 mg/100 ml, the “Tot.Lipids M ± E.S.” value [1, 10] is reported as 1643 ± 131 mg/100 ml and the “Tot.Cholesterol % vs contr.” value ([1]; reduction) is reported as 39,9%. For the same molecule, the “Tot.Lipids % vs contr.” value ([1]; reduction) was 32,5%, the “Serum opt.density at the indicated times (M ± E.S.)” value (“Serum opt.density” for short) ([2]; 3 h) was 258 ± 14,9 and the “Serum opt.density” value ([2]; 6 h) was 1312 ± 58,2. The “Serum opt.density” value ([2]; 9 h) was 1161 ± 53,2, the “Serum opt.density” value ([2]; 12 h) was 1000 ± 31,3 and the “Serum opt.density” value ([2]; 15 h) was 510 ± 18,4. The “Serum opt.density” value ([2]; 18 h) was 250 ± 21,4, the “Triglycerids M ± E.S.” value ([3]; dose 1,0 mM/kg/os once a day for 4 days, 4 hours after last treatment) was 156,4 ± 18,1 mg/100 ml and the “Triglycerids % vs contr. positivi” value ([3]; dose 1,0 mM/kg/os, 4 hours after treatment) was -24,7%. For the same molecule, the “decrease (of triglycerides vs positive controls)” value ([3]; dose of 1 mM/kg per os) was 24,7%, the “% variation vs positive controls (Trigliceridi)” value (“% variation vs positive controls” for short) ([4]; 4 h) was -29,4% and the Trigliceridi ([4]; 4 h from the last treatment) was 181,6 ± 15,7 mg/100 ml. The “% variation vs positive controls” value ([4]; 6 h) was -25,5%, the Trigliceridi ([4]; 6 h from the last treatment) was 176,0 ± 11,2 mg/100 ml and the “% variation vs positive controls” value ([4]; 12 h) was -10,3%. The Trigliceridi ([4]; 12 h from the last treatment) was 184,6 ± 8,9 mg/100 ml, the “% variation vs positive controls” value ([4]; 16 h) was -3,1% and the Trigliceridi ([4]; 16 h from the last treatment) was 180,7 ± 14,5 mg/100 ml. The “% variation vs positive controls” value ([4]; 24 h) was “+7,9%”, the Trigliceridi ([4]; 24 h from the last treatment) was 178,4 ± 9,7 mg/100 ml and the “Latency time, % variation vs controls” value [5] was “+8,0%”. The “Transmittance percentage, % variation vs controls” value [5] was -13,0%, the “Latency time (sec.)” value [5, 11] was 40,5 ± 4,0 sec and the “Transmittance percentage (maximum aggregation)” value [5, 11] was 68,4 ± 5,2%.
For `COc1ccc(Cc2nccc3cc(OC)c(OC)cc23)cc1OC` [Papaverin, reference compound], the “Temperature (°C) of the hind paws (n=10)” value [6, 12] was 24,5 ± 0,28 °C, the “Temperature (°C) of the hind paws (n=10)” value ([6]; 30 minutes from the treatment) was 26,6 ± 0,25 °C and the “Temperature (°C) of the hind paws (n=10)” value ([6]; 60 minutes from the treatment) was 25,7 ± 0,20 °C. For the same molecule, the “Temperature (°C) of the hind paws (n=10)” value ([6]; 120 minutes from the treatment) was 25,5 ± 0,23 °C, the “Temperature (°C) of the hind paws” value [6, 12] was 24,8 ± 0,35 °C and the “Temperature (°C) of the hind paws” value ([6]; 30 minutes from the treatment) was 25,5 ± 0,21 °C. The “Temperature (°C) of the hind paws” value ([6]; 60 minutes from the treatment) was 25,9 ± 0,25 °C, the “Temperature (°C) of the hind paws” value ([6]; 120 minutes from the treatment) was 25,1 ± 0,30 °C and the EC50 ([7]; Oryctolagus cuniculus, read-out: DE50) was 760 nM. For the same molecule, the “% inhibi-tions of the con-tractions” value ([7]; concentration 0,5 μ M) was 33%, the “% inhibi-tions of the con-tractions” value ([7]; concentration 1,0 μ M) was 64% and the “% inhibi-tions of the con-tractions” value ([7]; concentration 2,0 μ M) was 81%.
`CC(=O)CCCCn1c(=O)c2c(ncn2C)n(C)c1=O` [pentossifillin] was tested, and the “Teitel method Δ % vs contr.” value ([8]; dose 3 x 0,5 mM/kg/os) was 40,1%, the “Teitel method T1/2 min. M ± E.S.” value ([8]; dose 3 x 0,5 mM/kg/os (three consecutive days)) was 2,18 ± 0,19 min and the “Schmidt-Schönbein method Δ % vs contr.” value [9] was 52,8%.
